Source: the NIST ThermoML archive (doi:10.1021/je500672d)
± gives the expanded uncertainty stated by the source.

settings: 298.15 K; 101.33 kPa; Liquid; Vibrating tube method

Q: Which mass density does the source give for `CO` [methanol] here?
A: The mass density was 786.4 ± 0.4 kg/m3.

Q: Which mass density does the source give for `COP(=O)([O-])OC.Cn1cc[n+](C)c1` [1,3-dimethylimidazolium dimethylphosphate] here?
A: The mass density was 1257.8 ± 1.4 kg/m3.

Q: With `COC(C)=O` [methyl ethanoate] as the molecule, how does the mass density read?
A: Its mass density is 927.7 ± 0.5 kg/m3.
